For 22 compounds, IC50 and MIC results are on record in ChEMBL document CHEMBL4411274, “Recent advances of tetrazole derivatives as potential anti-tubercular and anti-malarial agents” (Eur J Med Chem, 2019).

The target in assay [1] is T1, Cysteine protease falcipain-3 (Plasmodium falciparum, UniProt Q9NAW4).
T1 sequence (Q9NAW4 whole entry): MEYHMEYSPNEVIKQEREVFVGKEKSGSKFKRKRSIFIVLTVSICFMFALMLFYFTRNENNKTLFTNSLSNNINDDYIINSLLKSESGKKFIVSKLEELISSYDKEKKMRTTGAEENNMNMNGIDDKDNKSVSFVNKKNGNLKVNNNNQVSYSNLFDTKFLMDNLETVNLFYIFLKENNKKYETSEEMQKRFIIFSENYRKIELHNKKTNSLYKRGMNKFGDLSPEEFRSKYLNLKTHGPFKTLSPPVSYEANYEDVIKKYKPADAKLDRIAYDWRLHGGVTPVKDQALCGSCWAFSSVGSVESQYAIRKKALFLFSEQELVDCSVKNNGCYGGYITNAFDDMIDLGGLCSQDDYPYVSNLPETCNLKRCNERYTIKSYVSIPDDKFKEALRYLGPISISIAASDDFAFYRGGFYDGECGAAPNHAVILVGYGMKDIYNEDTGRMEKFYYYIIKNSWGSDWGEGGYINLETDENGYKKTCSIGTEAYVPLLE
In words: Inhibition of Plasmodium falciparum falcipain-3 preincubated for 30 mins followed by Z-Leu-Arg-AMC substrate addition and measured up to 15 mins by spectrofluorometric analysis.

For the next assay, the target named is T2, Falcipain 2 (Plasmodium falciparum, UniProt Q9N6S8).
T2 sequence (Q9N6S8 whole entry): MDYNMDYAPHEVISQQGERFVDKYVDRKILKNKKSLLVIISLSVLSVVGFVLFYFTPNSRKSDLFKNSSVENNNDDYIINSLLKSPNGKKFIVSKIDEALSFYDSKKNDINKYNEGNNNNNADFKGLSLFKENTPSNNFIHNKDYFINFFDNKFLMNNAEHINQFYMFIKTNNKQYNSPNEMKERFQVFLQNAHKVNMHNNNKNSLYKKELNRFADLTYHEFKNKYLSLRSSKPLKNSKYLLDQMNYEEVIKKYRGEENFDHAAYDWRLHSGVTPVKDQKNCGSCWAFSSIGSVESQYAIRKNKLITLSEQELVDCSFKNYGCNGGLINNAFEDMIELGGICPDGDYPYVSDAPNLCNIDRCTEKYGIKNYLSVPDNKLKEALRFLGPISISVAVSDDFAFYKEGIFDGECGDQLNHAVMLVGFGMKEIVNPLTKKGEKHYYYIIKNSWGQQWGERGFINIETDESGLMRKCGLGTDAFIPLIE
As to the kind of experiment: Inhibition of Plasmodium falciparum falcipain-2 preincubated for 30 mins followed by Z-Leu-Arg-AMC substrate addition and measured up to 15 mins by spectrofluorometric analysis.

The next assay concerns Plasmodium falciparum. As to the kind of experiment: Antimalarial activity against Plasmodium falciparum K2 infected in human erythrocytes assessed as parasitemia after 48 hrs by YOYO-1 staining-based flow cytometric analysis. It counts as functional, organism-based. Conditions: K2, 48 h. For orientation: A flow cytometer gives signals particle by particle.
The subject of a further assay is CHO-K1. In words: Cytotoxicity against CHOK1 cells after 24 hrs by MTT assay. In kind it is cell-based. Conditions: Cricetulus griseus, CHO-K1, 24 h. (Formazan colour is commonly taken as a measure of viable cells.)
In assay [2] the test system is Mycobacterium tuberculosis. In words: Antibacterial activity against Mycobacterium tuberculosis H37Rv by MABA. In kind it is functional. Background: Alamar Blue is a resazurin reagent that responds to reducing activity.
The subject of assay [3] is Mycobacterium tuberculosis. As to the kind of experiment: Antibacterial activity against Mycobacterium tuberculosis H37Rv by resazurin dye-based assay. It counts as functional.

In brackets after ≈: the same amount, converted by molar mass.

Regarding `COc1ccc(NC(=O)Cn2nnc(-c3ccccc3NC(=O)c3cc(OC)cc(OC)c3)n2)cc1`, the IC50 in assay [1] was 6.67 to 43.9 µM; against Falcipain 2, 6.67 to 43.9 µM; in the assay on Plasmodium falciparum, over 10 µM.
Take `COc1cc(-c2nnnn2S(=O)(=O)c2ccc(Br)cc2)ccc1OCC(O)(Cn1cncn1)c1ccc(F)cc1F` (centres undefined): the IC50 with CHO-K1 was over 150 µg/mL. 3.12 µg/mL (≈ 4.81 µM) was the least that counted as inhibitory in assay [2] (MIC).
Take `CCCCOc1ccc(-c2nnn(CC(=O)c3ccc(Cl)cc3)n2)cc1`: the IC50 was 6.67 to 43.9 µM in assay [1], 6.67 to 43.9 µM against Falcipain 2 and over 10 µM in the assay with Plasmodium falciparum.
Regarding `COc1cc(-c2nnnn2S(=O)(=O)c2ccc(Br)s2)ccc1OCC(O)(Cn1cncn1)c1ccc(Cl)cc1Cl` (centres undefined), the IC50 in the assay on CHO-K1 is over 150 µg/mL. This compound also returned a minimal inhibitory concentration (MIC) in assay [2] of 1.56 µg/mL (≈ 2.27 µM).
On the same counts, the results for `COc1cc(-c2nnnn2S(=O)(=O)c2ccc(Br)cc2)ccc1OCC(O)(Cn1cncn1)c1ccc(Cl)cc1Cl` (centres undefined) are over 150 µg/mL and 1.56 to 12.5 µg/mL (≈ 2.29 to 18.3 µM).
In the assay with CHO-K1, `COc1cc(-c2nnnn2S(=O)(=O)c2ccc(OC(F)(F)F)cc2)ccc1OCC(O)(Cn1cncn1)c1ccc(Cl)cc1Cl` (centres undefined) displayed a half-maximal inhibitory concentration (IC50) of over 150 µg/mL. Also, in assay [2], the MIC is 1.56 to 12.5 µg/mL (≈ 2.27 to 18.2 µM).
On the same counts, the results for `COc1cc(-c2nnnn2S(=O)(=O)c2ccc([N+](=O)[O-])cc2)ccc1OCC(O)(Cn1cncn1)c1ccc(F)cc1F` (centres undefined) are over 150 µg/mL and 12.5 µg/mL (≈ 20.3 µM).
`Cc1cc(NC(=O)Cn2nnc(-c3ccc(N)cc3)n2)no1`: the 50% inhibitory concentration (IC50) is 6.67 to 43.9 µM in assay [1], 6.67 to 43.9 µM at Falcipain 2 and over 10 µM in the assay on Plasmodium falciparum.
In the case of `COc1cc(-c2nnnn2S(=O)(=O)c2ccc(C)cc2)ccc1OCC(O)(Cn1cncn1)c1ccc(Cl)cc1Cl` (centres undefined), the IC50 in the assay on CHO-K1 was over 150 µg/mL. Besides, the MIC in assay [2] is 1.56 to 12.5 µg/mL (≈ 2.53 to 20.3 µM).
In the assay on CHO-K1, `COc1cc(-c2nnnn2S(=O)(=O)c2ccccc2)ccc1OCC(O)(Cn1cncn1)c1ccc(F)cc1F` (centres undefined) had an IC50 of over 150 µg/mL. It took 3.12 µg/mL (≈ 5.48 µM) to inhibit growth in assay [2] (MIC).
`COc1cc(-c2nnnn2S(=O)(=O)c2ccc(C)cc2)ccc1OCC(O)(Cn1cncn1)c1ccc(F)cc1F` (centres undefined) displayed an IC50 in the assay on CHO-K1 of over 150 µg/mL.
On to `COc1ccc(-c2ccc(-c3nnn(CC(=O)c4ccccc4)n3)cc2)cc1`, for which the IC50 was 6.67 to 43.9 µM in assay [1], 6.67 to 43.9 µM against Falcipain 2 and over 10 µM in the assay on Plasmodium falciparum.
`COc1cc(-c2nnnn2S(=O)(=O)c2ccc(Br)s2)ccc1OCC(O)(Cn1cncn1)c1ccc(F)cc1F` (centres undefined) had a 50% inhibitory concentration (IC50) in the assay on CHO-K1 of over 150 µg/mL. Also, the MIC in assay [2] was 1.56 µg/mL (≈ 2.38 µM).
Consider `O=C(Cn1nnnc1-c1ccccc1)NN1C(=O)C(Cl)C1c1ccc(Cl)cc1` (centres undefined), for which the MIC in assay [3] was over 6.25 µg/mL.
Turning to `COc1ccc(S(=O)(=O)n2nnnc2-c2ccc(OCC(O)(Cn3cncn3)c3ccc(F)cc3F)c(OC)c2)cc1` (centres undefined), in the assay on CHO-K1, the concentration for half-maximal inhibition (IC50) was over 150 µg/mL. For the same compound, the MIC in assay [2] was 1.56 µg/mL (≈ 2.6 µM).
On the same counts, the results for `COc1cc(-c2nnnn2S(=O)(=O)c2ccc(C(C)(C)C)cc2)ccc1OCC(O)(Cn1cncn1)c1ccc(F)cc1F` (centres undefined) are over 150 µg/mL and 1.56 µg/mL (≈ 2.49 µM).
Take `COc1ccc(C(=O)Cn2nnc(-c3ccccc3NC(=O)c3ccncc3)n2)cc1`: the values for the IC50 (in assay [1]; at Falcipain 2; with Plasmodium falciparum) were 6.67 to 43.9 µM, 6.67 to 43.9 µM and over 10 µM, respectively.
Take `CC(C(=O)N1c2ccccc2CCc2ccccc21)n1nnc(-c2ccc(N3CCOCC3)cc2)n1` (centres undefined): the 50% inhibitory concentration (IC50) is 6.67 to 43.9 µM in assay [1], 6.67 to 43.9 µM at Falcipain 2 and over 10 µM in the assay on Plasmodium falciparum.
As for `CCCCOc1ccc(-c2nnn(CC(=O)Nc3c(C)ccc4ccccc34)n2)cc1`, the IC50 was 6.67 to 43.9 µM in assay [1], 6.67 to 43.9 µM against Falcipain 2 and over 10 µM in the assay with Plasmodium falciparum.
`COc1cc(-c2nnnn2S(=O)(=O)c2ccc(F)cc2)ccc1OCC(O)(Cn1cncn1)c1ccc(F)cc1F` (centres undefined) yielded a half-inhibitory concentration (IC50) in the assay with CHO-K1 of over 150 µg/mL. Besides, in assay [2], the minimal inhibitory concentration (MIC) stood at 6.25 µg/mL (≈ 10.6 µM).
On the same counts, the results for `COc1cc(-c2nnnn2S(=O)(=O)c2ccc(C(C)(C)C)cc2)ccc1OCC(O)(Cn1cncn1)c1ccc(Cl)cc1Cl` (centres undefined) are over 150 µg/mL and 1.56 to 12.5 µg/mL (≈ 2.37 to 19 µM).
On the same counts, the results for `COc1cc(-c2nnnn2S(=O)(=O)c2ccc([N+](=O)[O-])cc2)ccc1OCC(O)(Cn1cncn1)c1ccc(Cl)cc1Cl` (centres undefined) are over 150 µg/mL and 1.56 to 12.5 µg/mL (≈ 2.41 to 19.3 µM).

As usually defined, the IC50 is the concentration that inhibits the measured activity by half. What is called MIC is the lowest concentration that inhibits growth of the organism.
